Measurements reported in US20240158446A1, “CYCLIC COMPOUND HAVING SELECTIVE INHIBITORY ACTION ON KRAS OVER HRAS AND NRAS” (CHUGAI SEIYAKU KABUSHIKI KAISHA, priority 2021, published 2024).

Experiments:
[1] = target: GDP-bound KRAS wild-type protein (Homo sapiens, UniProt P01116); experiment: Binding to KRAS by surface plasmon resonance (SPR), Single Cycle Kinetics; conditions: SPR, Single Cycle Kinetics, 1:1 binding model; GDP-bound KRAS wild-type protein; read-out: KRAS KD
[2] = target: GDP-bound NRAS wild-type protein (Homo sapiens, UniProt P01111); experiment: Binding to NRAS by surface plasmon resonance (SPR), Single Cycle Kinetics; conditions: SPR; GDP-bound NRAS wild-type protein vs GDP-bound KRAS wild-type protein; KD ratio class
Sequence of GDP-bound NRAS wild-type protein (P01111 whole entry): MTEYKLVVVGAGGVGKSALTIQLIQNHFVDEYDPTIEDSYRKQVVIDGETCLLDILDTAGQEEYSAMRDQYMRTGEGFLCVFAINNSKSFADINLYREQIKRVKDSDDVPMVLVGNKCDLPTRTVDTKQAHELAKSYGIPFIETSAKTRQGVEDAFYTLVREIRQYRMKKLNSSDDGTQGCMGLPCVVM

[3] = target: GDP-bound HRAS wild-type protein (Homo sapiens, UniProt P01112); experiment: Binding to HRAS by surface plasmon resonance (SPR), Single Cycle Kinetics; conditions: SPR; GDP-bound HRAS wild-type protein vs GDP-bound KRAS wild-type protein; KD ratio class
Sequence of GDP-bound HRAS wild-type protein (P01112 whole entry): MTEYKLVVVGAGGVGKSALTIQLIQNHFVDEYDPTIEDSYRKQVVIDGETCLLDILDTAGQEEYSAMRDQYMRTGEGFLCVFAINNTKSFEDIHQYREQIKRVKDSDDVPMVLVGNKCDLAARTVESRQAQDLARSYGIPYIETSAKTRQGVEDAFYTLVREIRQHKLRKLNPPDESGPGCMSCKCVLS

[4] = tested on: human lung cancer strain NCI-H441;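 note: cell proliferation inhibition after four days measured by CellTiter-Glo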

Sequence of GDP-bound KRAS wild-type protein (P01116 whole entry): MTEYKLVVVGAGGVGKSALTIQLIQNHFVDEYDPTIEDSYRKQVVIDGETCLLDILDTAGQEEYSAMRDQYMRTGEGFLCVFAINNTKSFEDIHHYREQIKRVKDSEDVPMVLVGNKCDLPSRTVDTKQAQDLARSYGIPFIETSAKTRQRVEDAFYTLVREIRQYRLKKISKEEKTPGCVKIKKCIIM

Row | SMILES | Kd [1] [nM] | NRAS/KRAS (ratio of KD value for NRAS to KD value for KRAS) [2] | HRAS/KRAS (ratio of KD value for HRAS to KD value for KRAS) [3] | IC50 [4] [nM]
1 | CCO[C@@H]1C[C@H]2C(=O)NC3(CCC3)C(=O)N(C)[C@@H](C3CCCC3)C(=O)N(C)[C@H](C(=O)N(C)C)CC(=O)N(C)[C@@H](CC)C(=O)N[C@@H]([C@@H](C)CC)C(=O)N(C)CC(=O)N(C)[C@H]3C/C=C\CCN(C3=O)[C@@H](Cc3ccc(C(F)(F)F)cc3)C(=O)N(C)CC(=O)N[C@@H](CCc3cc(F)c(Cl)c(F)c3)C(=O)N2C1 [PP1262] | 0.24 | A (a compound having 10 or more and less than 20 is denoted as A) | B (a compound having 3 or more and less than 10 is denoted as B) | 56.7
2 | CCO[C@@H]1C[C@H]2C(=O)NC3(CCC3)C(=O)N(C)[C@@H](C3CCCC3)C(=O)N(C)[C@H](C(=O)N(C)C)CC(=O)N(C)[C@@H](CC(C)C)C(=O)N[C@@H]([C@@H](C)CC)C(=O)N(C)CC(=O)N(C)[C@H]3C/C=C\CCN(C3=O)[C@@H](Cc3ccc(C(F)(F)F)cc3)C(=O)N(C)CC(=O)N[C@@H](CCc3cc(F)c(Cl)c(F)c3)C(=O)N2C1 [PP1263] | 0.23 | A (a compound having 10 or more and less than 20 is denoted as A) | A (a compound having 10 or more and less than 20 is denoted as A) | 18.9
3 | CCO[C@@H]1C[C@H]2C(=O)NC3(CCC3)C(=O)N(C)[C@@H](C3CCCC3)C(=O)N(C)[C@H](C(=O)N(C)C)CC(=O)N(C)[C@@H](CC3CCCC3)C(=O)N[C@@H]([C@@H](C)CC)C(=O)N(C)CC(=O)N(C)[C@H]3C/C=C\CCN(C3=O)[C@@H](Cc3ccc(C(F)(F)F)cc3)C(=O)N(C)CC(=O)N[C@@H](CCc3cc(F)c(Cl)c(F)c3)C(=O)N2C1 [PP1264] | 0.37 | A (a compound having 10 or more and less than 20 is denoted as A) | B (a compound having 3 or more and less than 10 is denoted as B) | 15.9
4 | CCO[C@@H]1C[C@H]2C(=O)NC3(CCC3)C(=O)N(C)[C@@H](C3CCCC3)C(=O)N(C)[C@H](C(=O)N(C)C)CC(=O)N(C)[C@@H](CC)C(=O)N[C@@H]([C@@H](C)CC)C(=O)N(C)CC(=O)N(C)[C@H]3C/C=C\CCN(C3=O)[C@@H](Cc3ccc(C(F)(F)F)cc3)C(=O)N(C)CC(=O)N[C@@H](CCc3ccc(C(F)(F)F)c(C)c3)C(=O)N2C1 [PP1265] | 0.17 | A (a compound having 10 or more and less than 20 is denoted as A) | B (a compound having 3 or more and less than 10 is denoted as B) | 14.1
5 | CCOC[C@H]1C(=O)N[C@@H]([C@@H](C)CC)C(=O)N(C)CC(=O)N(C)[C@H]2C/C=C\CCN(C2=O)[C@@H](Cc2ccc(C(F)(F)F)cc2)C(=O)N(C)CC(=O)N[C@@H](CCc2cc(F)c(C(F)(F)F)c(F)c2)C(=O)N2C[C@H](OCC)C[C@H]2C(=O)NC2(CCC2)C(=O)N(C)[C@@H](C2CCCC2)C(=O)N(C)[C@H](C(=O)N(C)C)CC(=O)N1C [PP1266, (2S,8S,12R,14S,20S,23S,27S,30S,36S,38Z)-20-cyclopentyl-8-[2-[3,5-difluoro-4-(trifluoromethyl)phenyl]ethyl]-12-ethoxy-27-(ethoxymethyl)-N,N,4,19,22,26,32,35-octamethyl-30-[(1S)-1-methylpropyl]-3,6,9,15,18,21,25,28,31,34,42-undecaoxo-2-[[4-(trifluoromethyl)phenyl]methyl]spiro[1,4,7,10,16,19,22,26,29,32,35-undecazatricyclo[34.5.1.0^10,14]dotetracont-38-ene-17,1′-cyclobutane]-23-carboxamide] | 0.045 | A (a compound having 10 or more and less than 20 is denoted as A) | A (a compound having 10 or more and less than 20 is denoted as A) | 12.2
6 | CCO[C@@H]1C[C@H]2C(=O)NC3(CCC3)C(=O)N(C)[C@@H](C3CCCC3)C(=O)N(C)[C@H](C(=O)N(C)C)CC(=O)N(C)[C@@H](COCC(F)(F)F)C(=O)N[C@@H]([C@@H](C)CC)C(=O)N(C)CC(=O)N(C)[C@H]3C/C=C\CCN(C3=O)[C@@H](Cc3ccc(C(F)(F)F)cc3)C(=O)N(C)CC(=O)N[C@@H](CCc3cc(F)c(C(F)(F)F)c(F)c3)C(=O)N2C1 [PP1267] | 0.046 | A (a compound having 10 or more and less than 20 is denoted as A) | A (a compound having 10 or more and less than 20 is denoted as A) | 10.8
7 | CCO[C@@H]1C[C@H]2C(=O)NC3(CCC3)C(=O)N(C)[C@@H](C3CCCC3)C(=O)N(C)[C@H](C(=O)N(C)C)CC(=O)N(C)[C@@H](COC3CC3)C(=O)N[C@@H]([C@@H](C)CC)C(=O)N(C)CC(=O)N(C)[C@H]3C/C=C\CCN(C3=O)[C@@H](Cc3ccc(C(F)(F)F)cc3)C(=O)N(C)CC(=O)N[C@@H](CCc3cc(F)c(C(F)(F)F)c(F)c3)C(=O)N2C1 [PP1268, (2S,8S,12R,14S,20S,23S,27S,30S,36S,38Z)-20-cyclopentyl-27-(cyclopropoxymethyl)-8-[2-[3,5-difluoro-4-(trifluoromethyl)phenyl]ethyl]-12-ethoxy-N,N,4,19,22,26,32,35-octamethyl-30-[(1S)-1-methylpropyl]-3,6,9,15,18,21,25,28,31,34,42-undecaoxo-2-[[4-(trifluoromethyl)phenyl]methyl]spiro[1,4,7,10,16,19,22,26,29,32,35-undecazatricyclo[34.5.1.0^10,14]dotetracont-38-ene-17,1′-cyclobutane]-23-carboxamide] | 0.045 | A (a compound having 10 or more and less than 20 is denoted as A) | A (a compound having 10 or more and less than 20 is denoted as A) | 12.1
8 | CCO[C@@H]1C[C@H]2C(=O)NC3(CCC3)C(=O)N(C)[C@@H](C3CCCC3)C(=O)N(C)[C@H](C(=O)N(C)C)CC(=O)N(C)[C@@H](CC)C(=O)N[C@@H](C3CCC3)C(=O)N(C)CC(=O)N(C)[C@H]3C/C=C\CCN(C3=O)[C@@H](Cc3ccc(C(F)(F)F)cc3)C(=O)N(C)CC(=O)N[C@@H](CCc3cc(F)c(C(F)(F)F)c(F)c3)C(=O)N2C1 [PP1269, (2S,8S,12R,14S,20S,23S,27S,30S,36S,38Z)-30-cyclobutyl-20-cyclopentyl-8-[2-[3,5-difluoro-4-(trifluoromethyl)phenyl]ethyl]-12-ethoxy-27-ethyl-N,N,4,19,22,26,32,35-octamethyl-3,6,9,15,18,21,25,28,31,34,42-undecaoxo-2-[[4-(trifluoromethyl)phenyl]methyl]spiro[1,4,7,10,16,19,22,26,29,32,35-undecazatricyclo[34.5.1.0^10,14]dotetracont-38-ene-17,1′-cyclobutane]-23-carboxamide] | 0.091 | A (a compound having 10 or more and less than 20 is denoted as A) | B (a compound having 3 or more and less than 10 is denoted as B) | 29
9 | CCO[C@@H]1C[C@H]2C(=O)NC3(CCC3)C(=O)N(C)[C@@H](C3CCCC3)C(=O)N(C)[C@H](C(=O)N(C)C)CC(=O)N(C)[C@@H](CC)C(=O)N[C@@H](C(C)C)C(=O)N(C)CC(=O)N(C)[C@H]3C/C=C\CCN(C3=O)[C@@H](Cc3ccc(C(F)(F)F)cc3)C(=O)N(C)CC(=O)N[C@@H](CCc3cc(F)c(C(F)(F)F)c(F)c3)C(=O)N2C1 [PP1270] | 0.13 | A (a compound having 10 or more and less than 20 is denoted as A) | B (a compound having 3 or more and less than 10 is denoted as B) | 53.5
10 | CC[C@H](C)[C@@H]1NC(=O)[C@H](C)N(C)C(=O)C[C@@H](C(=O)N(C)C)N(C)C(=O)[C@H](C2CCCC2)N(C)C(=O)C2(CCC2)NC(=O)[C@@H]2CCCN2C(=O)[C@H](CCc2cc(F)c(C(F)(F)F)c(F)c2)NC(=O)CN(C)C(=O)[C@H](Cc2ccc(C(F)(F)F)cc2)N2CC/C=C\C[C@@H](C2=O)N(C)C(=O)CN(C)C1=O [PP1271, (2S,8S,14S,20S,23S,27S,30S,36S,38Z)-20-cyclopentyl-8-[2-[3,5-difluoro-4-(trifluoromethyl)phenyl]ethyl]-N,N,4,19,22,26,27,32,35-nonamethyl-30-[(1S)-1-methylpropyl]-3,6,9,15,18,21,25,28,31,34,42-undecaoxo-2-[[4-(trifluoromethyl)phenyl]methyl]spiro[1,4,7,10,16,19,22,26,29,32,35-undecazatricyclo[34.5.1.0^10,14]dotetracont-38-ene-17,1′-cyclobutane]-23-carboxamide] | 0.054 | AA (a compound having 20 or more is denoted as AA) | A (a compound having 10 or more and less than 20 is denoted as A) | 90.7
